Data: ChEMBL document CHEMBL1201862, “PubChem BioAssay data set” (2004)
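Values below derive from 48-hour exposures of cells grown in 96-well plates, with endpoints linearly interpolated between the two concentrations bracketing the appropriate inhibition level. The concentration for 50% growth inhibition is given as GI50.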 Activity calls are given as the source filed them. Cut-off read from the data, not from the text of the source: active = GI50 up to about 1.1 µM and inactive = higher.

Key:
Experiment in all cases: inhibition of tumour cell growth, NCI panel, 48 h
[1] = test system: MDA-MB-435
[2] = test system: UACC-62
[3] = test system: HT-29
[4] = test system: T47D
[5] = test system: OVCAR-3
[6] = test system: SK-MEL-2
[7] = test system: OVCAR-8
[8] = test system: SF-295
[9] = test system: SK-MEL-5
[10] = test system: U-251
[11] = test system: HCT-15
[12] = test system: NCI-H460
[13] = test system: M14
[14] = test system: BT-549
[15] = test system: HOP-92
[16] = test system: SK-OV-3
[17] = test system: OVCAR-5
[18] = test system: SK-MEL-28
[19] = test system: MOLT-4
[20] = test system: NCI-H23

Compound	GI50 [1]	GI50 [2]	GI50 [3]	GI50 [4]	GI50 [5]	GI50 [6]	GI50 [7]	GI50 [8]	GI50 [9]	GI50 [10]	GI50 [11]	GI50 [12]	GI50 [13]	GI50 [14]	GI50 [15]	GI50 [16]	GI50 [17]	GI50 [18]	GI50 [19]	GI50 [20]
OCCCNCc1ccccn1	> 100 µM (inactive)	> 100 µM (inactive)	> 100 µM (inactive)	> 100 µM (inactive)	> 100 µM (inactive)	> 100 µM (inactive)	> 100 µM (inactive)	> 100 µM (inactive)	> 100 µM (inactive)	> 100 µM (inactive)	> 100 µM	> 100 µM (inactive)	> 100 µM (inactive)	> 100 µM (inactive)	> 100 µM (inactive)	> 100 µM (inactive)	> 100 µM (inactive)	> 100 µM (inactive)	> 100 µM (inactive)	> 100 µM (inactive)
CC(=O)c1c(SCCN2CCOCC2)n(-c2ccccc2)c(=S)n(-c2ccccc2)c1=O	16 µM (inactive)	15.5 µM (inactive)	23.8 µM (inactive)	17.6 µM (inactive)	14.8 µM (inactive)	20.2 µM (inactive)	19.3 µM (inactive)	> 62.7 µM (inactive)	17.3 µM (inactive)	31.2 µM (inactive)	19.5 µM	24.4 µM (inactive)	16.1 µM (inactive)	21.1 µM (inactive)	15.3 µM (inactive)	> 48.6 µM (inactive)	> 100 µM (inactive)	20.9 µM (inactive)	16 µM (inactive)	27.6 µM (inactive)
COC(=O)CCCCC/C(=C\C(=O)C(Cl)(Cl)Cl)OC	22.9 µM (inactive)	36 µM (inactive)	30.5 µM (inactive)	28.5 µM (inactive)	26.6 µM (inactive)	22.2 µM (inactive)	25.4 µM (inactive)	43.3 µM (inactive)	38.8 µM (inactive)	26.4 µM (inactive)	24.2 µM	28.3 µM (inactive)	31.1 µM (inactive)	38.9 µM (inactive)	26.1 µM (inactive)	61.4 µM (inactive)	> 100 µM (inactive)	32.9 µM (inactive)	16.7 µM (inactive)	31.8 µM (inactive)
CC(C)c1ccc(/C=C2/C=C(c3ccc4ccccc4c3)OC2=O)cc1	41.3 µM (inactive)	35.4 µM (inactive)	> 95.3 µM (inactive)	43 µM (inactive)	60 µM (inactive)	19.5 µM (inactive)	45.2 µM (inactive)	> 94.6 µM (inactive)	15.2 µM (inactive)	39.6 µM (inactive)	72.3 µM	> 78.2 µM (inactive)	41 µM (inactive)	33.3 µM (inactive)	37.8 µM (inactive)	> 100 µM (inactive)	> 100 µM (inactive)	55.5 µM (inactive)	21.2 µM (inactive)	38.7 µM (inactive)
O=C(c1ccccc1)c1ccc(N2C(=O)/C(=C/c3ccccc3S)N=C2c2ccccc2)c(N2C(=O)/C(=C/c3ccccc3S)N=C2c2ccccc2)c1	19.6 µM (inactive)	49.4 µM (inactive)	86.5 µM (inactive)	43.3 µM (inactive)	20.1 µM (inactive)	22.7 µM (inactive)	27.8 µM (inactive)	46.6 µM (inactive)	29.4 µM (inactive)	25.2 µM (inactive)	53.3 µM	47.6 µM (inactive)	38.2 µM (inactive)	49.3 µM (inactive)	> 100 µM (inactive)	> 100 µM (inactive)	> 100 µM (inactive)	> 100 µM (inactive)	21.4 µM (inactive)	–
C1=N/CCNCCNCC/N=C/c2ccccc2OCc2cccc(n2)COc2ccccc2/1	11.3 µM (inactive)	79.1 µM (inactive)	25.6 µM (inactive)	57.4 µM (inactive)	30.1 µM (inactive)	> 100 µM (inactive)	28.6 µM (inactive)	26.4 µM (inactive)	39.1 µM (inactive)	26.7 µM (inactive)	45.1 µM	34.4 µM (inactive)	28.7 µM (inactive)	38.5 µM (inactive)	71.4 µM (inactive)	> 100 µM (inactive)	> 100 µM (inactive)	> 100 µM (inactive)	27.4 µM (inactive)	86.3 µM (inactive)
CSc1nc(SC)c2c(CO)c(Br)n(Cc3ccccc3)c2n1	> 100 µM (inactive)	17.5 µM (inactive)	33.8 µM (inactive)	14.9 µM (inactive)	29.5 µM (inactive)	25.7 µM (inactive)	18 µM (inactive)	20.7 µM (inactive)	48.9 µM (inactive)	12.6 µM (inactive)	70 µM	15.7 µM (inactive)	83.2 µM (inactive)	21.6 µM (inactive)	17.2 µM (inactive)	20.2 µM (inactive)	56.9 µM (inactive)	47.9 µM (inactive)	> 100 µM (inactive)	30.7 µM (inactive)
Cc1cc2c(c(O)c1-c1c(C)cc(O)c3c1C(=O)C=CC3=O)C(=O)C=CC2=O	1.95 µM (inactive)	2.13 µM (inactive)	1.58 µM (inactive)	1.34 µM (inactive)	2.08 µM (inactive)	10 µM (inactive)	1.95 µM (inactive)	16.7 µM (inactive)	4.01 µM (inactive)	4.03 µM (inactive)	1.52 µM	6.43 µM (inactive)	2.18 µM (inactive)	2.61 µM (inactive)	0.413 µM (active)	15.6 µM (inactive)	2.62 µM (inactive)	0.369 µM (active)	0.0224 µM (active)	3.05 µM (inactive)
CSC1=C(C#N)C(=O)N(c2ccc(C)cc2)C(=O)C1C#N (stereo not drawn)	> 100 µM (inactive)	> 100 µM (inactive)	> 100 µM (inactive)	41.2 µM (inactive)	> 100 µM (inactive)	> 100 µM (inactive)	–	> 100 µM (inactive)	> 100 µM (inactive)	> 100 µM (inactive)	> 100 µM	> 100 µM (inactive)	> 100 µM (inactive)	> 100 µM (inactive)	25 µM (inactive)	> 100 µM (inactive)	> 100 µM (inactive)	> 100 µM (inactive)	> 100 µM (inactive)	> 100 µM (inactive)
Cc1c2c(n(CC(c3ccccc3)c3ccccc3)c1C)NN=C(C#N)S2(=O)=O	> 100 µM (inactive)	97.7 µM (inactive)	> 100 µM (inactive)	> 100 µM (inactive)	> 100 µM (inactive)	> 100 µM (inactive)	> 100 µM (inactive)	> 100 µM (inactive)	> 100 µM (inactive)	> 100 µM (inactive)	> 100 µM	> 100 µM (inactive)	> 100 µM (inactive)	> 100 µM (inactive)	> 100 µM (inactive)	> 100 µM (inactive)	> 100 µM (inactive)	> 100 µM (inactive)	37.7 µM (inactive)	> 100 µM (inactive)
